Experimental data as given in patent publication EP4644396A1 (Visionpharma (Nantong) Co., Ltd, priority 2022, dated 2024).
Read-outs that look alike come from different tables or passages of the source.

Columns and labels:
[1] = biological target: T1, human TLR7 (Homo sapiens, UniProt Q9NYK1); experiment: HEK-Blue hTLR7 SEAP reporter gene inhibition assay; format: cell-based
T1 sequence (Q9NYK1 27-1049): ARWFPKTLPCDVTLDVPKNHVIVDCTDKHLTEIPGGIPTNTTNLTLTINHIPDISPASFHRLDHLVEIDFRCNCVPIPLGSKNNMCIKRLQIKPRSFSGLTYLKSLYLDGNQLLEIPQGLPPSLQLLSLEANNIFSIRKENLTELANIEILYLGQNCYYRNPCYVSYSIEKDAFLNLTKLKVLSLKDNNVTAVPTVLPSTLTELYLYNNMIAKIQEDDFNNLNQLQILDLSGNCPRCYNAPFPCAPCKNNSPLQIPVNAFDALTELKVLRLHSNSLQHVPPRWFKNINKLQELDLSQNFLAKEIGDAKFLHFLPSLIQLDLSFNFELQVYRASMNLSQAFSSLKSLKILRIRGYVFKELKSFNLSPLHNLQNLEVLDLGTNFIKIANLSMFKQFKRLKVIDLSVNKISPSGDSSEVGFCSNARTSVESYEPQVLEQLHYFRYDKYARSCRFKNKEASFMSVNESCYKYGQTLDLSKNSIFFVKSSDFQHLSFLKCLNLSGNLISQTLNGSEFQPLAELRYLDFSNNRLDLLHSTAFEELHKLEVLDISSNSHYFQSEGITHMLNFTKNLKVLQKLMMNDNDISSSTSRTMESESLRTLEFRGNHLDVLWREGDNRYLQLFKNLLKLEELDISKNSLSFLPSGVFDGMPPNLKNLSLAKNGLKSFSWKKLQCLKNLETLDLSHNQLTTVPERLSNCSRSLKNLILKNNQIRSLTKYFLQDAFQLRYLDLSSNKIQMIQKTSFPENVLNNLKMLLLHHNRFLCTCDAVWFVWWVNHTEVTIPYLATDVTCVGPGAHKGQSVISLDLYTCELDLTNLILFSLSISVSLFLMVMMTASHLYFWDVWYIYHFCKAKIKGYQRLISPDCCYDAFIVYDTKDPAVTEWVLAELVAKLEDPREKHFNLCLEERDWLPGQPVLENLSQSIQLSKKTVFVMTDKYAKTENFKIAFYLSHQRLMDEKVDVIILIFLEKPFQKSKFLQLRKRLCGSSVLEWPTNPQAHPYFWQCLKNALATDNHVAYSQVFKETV
In short: (§1)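 HEK-Blue cells stably expressing human TLR7 (80,000/well) or TLR8 (60,000/well) with NF-κB/AP-1–driven SEAP reporter; compounds 0.001–36 µM preincubated 15 min, then 10 µM ligand (Gardiquimod for TLR7) added for 20 h. SEAP measured by Quanti-Blue; IC50 calculated.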

[2] = biological target: T2, human TLR8 (Homo sapiens, UniProt Q9NR97); experiment: HEK-Blue hTLR8 SEAP reporter gene inhibition assay; format: cell-based
T2 construct: expressed in transfected cells
T2 sequence (Q9NR97 27-1041): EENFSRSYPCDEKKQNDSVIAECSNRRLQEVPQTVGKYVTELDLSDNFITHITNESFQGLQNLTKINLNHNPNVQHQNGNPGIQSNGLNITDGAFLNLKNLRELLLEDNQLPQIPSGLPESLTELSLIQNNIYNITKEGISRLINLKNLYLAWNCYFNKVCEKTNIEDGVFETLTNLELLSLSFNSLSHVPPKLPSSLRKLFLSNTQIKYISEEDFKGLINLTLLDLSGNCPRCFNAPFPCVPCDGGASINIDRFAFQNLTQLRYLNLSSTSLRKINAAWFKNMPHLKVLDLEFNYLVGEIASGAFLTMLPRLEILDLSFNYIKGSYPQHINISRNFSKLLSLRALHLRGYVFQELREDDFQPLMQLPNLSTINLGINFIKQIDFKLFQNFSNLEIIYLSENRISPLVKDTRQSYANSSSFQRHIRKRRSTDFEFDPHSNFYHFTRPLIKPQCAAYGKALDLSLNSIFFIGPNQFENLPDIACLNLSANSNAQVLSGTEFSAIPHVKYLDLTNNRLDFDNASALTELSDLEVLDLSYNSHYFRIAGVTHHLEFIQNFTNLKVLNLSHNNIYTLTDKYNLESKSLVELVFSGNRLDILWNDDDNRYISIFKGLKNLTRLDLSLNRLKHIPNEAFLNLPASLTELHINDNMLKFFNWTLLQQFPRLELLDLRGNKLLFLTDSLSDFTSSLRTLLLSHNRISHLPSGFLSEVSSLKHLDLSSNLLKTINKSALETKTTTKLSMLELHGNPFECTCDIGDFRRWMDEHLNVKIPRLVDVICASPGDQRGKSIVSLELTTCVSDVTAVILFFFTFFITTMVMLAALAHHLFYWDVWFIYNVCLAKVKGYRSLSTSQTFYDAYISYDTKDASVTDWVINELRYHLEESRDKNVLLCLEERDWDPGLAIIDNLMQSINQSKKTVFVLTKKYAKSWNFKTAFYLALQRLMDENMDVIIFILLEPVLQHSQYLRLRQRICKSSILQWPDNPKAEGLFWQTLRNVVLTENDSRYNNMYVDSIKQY
In short: as §1

[3] = hTLR7 HEK-Blue cells, TLR7 ligand Gardiquimod 10 µM, 20 hours, SEAP by Quanti-blue, class symbols, read-out: HEK-Blue hTLR7 IC50
[4] = hTLR8 HEK-Blue cells, TLR8 ligand 10 µM, 20 hours, SEAP by Quanti-blue, class symbols, read-out: HEK-Blue hTLR8 IC50

Row | SMILES | IC50 [1, 3] [µM] | IC50 [2, 4] [µM] | IC50 ([1]; HEK-Blue hTLR7 IC50 (µM)) [µM] | IC50 ([2]; HEK-Blue hTLR8 IC50 (µM)) [µM]
1 | C[C@@H]1Cc2c(nn3c2CN(c2ccc(C#N)n4ncc(F)c24)C[C@H]3C)[C@H](C)N1 [Example I-59, 3-Fluoro-4-((4R,7S,9R)-4,7,9-trimethyl-3,4,7,8,9,10-hexahydropyrido[3',4':3,4]pyrazolo[1,5-a]pyrazin-2(1H)-yl)pyrazolo[1,5-a]pyridine-7-carbonitrile] | < 0.05 | > 0.1 |  | 
2 | C[C@@H]1CN(c2ccc(C#N)n3ncc(F)c23)Cc2c3c(nn21)CNC(CCOC(C)(C)C)C3 (stereo partly drawn) [Example I-61, 4-((4R)-9-(2-(tert-butoxy)ethyl)-4-methyl-3,4,7,8,9,10-hexahydropyridine[3',4':3,4]pyrazole[1,5-a]pyrazine-2(1H)-yl)-3-fluoropyrazole[1,5-a]pyridine-7-caronitrile] |  |  | < 0.05 | > 0.1
3 | C[C@@H]1CN(c2ccc(C#N)n3ncc(F)c23)Cc2c3c(nn21)CNC(c1ccn[nH]1)C3 (stereo partly drawn) [Example I-68, 3-Fluoro-4-((4R)-4-methyl-9-(1H-pyrazol-5-yl)-3,4,7,8,9,10-hexahydropyrido[3',4':3,4]pyrazolo[1,5-a]pyrazin-2(1H)-yl)pyrazolo[1,5-a]pyridine-7-carbonitrile] | > 0.05 | < 0.1 |  | 
4 | C[C@@H]1CN(c2ccc(C#N)n3ncc(F)c23)Cc2c3c(nn21)CNC(C(C)(C)O)C3 (stereo partly drawn) [Example I-74, 3-Fluoro-4-((4R)-9-(2-hydroxypropan-2-yl)-4-methyl-3,4,7,8,9,10-hexahydropyrido [3',4':3,4]pyrazolo[1,5-a]pyrazin-2(1H)-yl)pyrazolo[1,5-a]pyridine-7-carbonitrile] | > 0.05 | > 0.1 |  | 
5 | C[C@@H]1CN(c2ccc(C#N)n3ncc(F)c23)Cc2c3c(nn21)CN[C@@H](CO)C3 [Example I-77, 3-Fluoro-4-((4R,9R)-9-(hydroxymethyl)-4-methyl-3,4,7,8,9,10-hexahydropyrido [3',4':3,4]pyrazolo[1,5-a]pyrazin-2(1H)-yl)pyrazolo[1,5-a]pyridine-7-carbonitrile] | > 0.05 | < 0.1 |  | 
6 | C[C@@H]1CN(c2ccc(C#N)n3ncc(F)c23)Cc2c3c(nn21)CNC(Cc1ccn[nH]1)C3 (stereo partly drawn) [Example I-79, 4-((4R)-9-((1H-pyrazol-5-yl)methyl)-4-methyl-3,4,7,8,9,10-hexahydropyrido[3',4':3,4]pyrazolo[1,5-a]pyrazin-2(1H)-yl)-3-fluoropyrazolo[1,5-a]pyridine-7-carbonitrile] | < 0.05 | < 0.1 |  | 
7 | COC[C@@H]1Cc2c(nn3c2CN(c2ccc(C#N)n4ncc(F)c24)C[C@H]3C)CN1 [Example I-85, 3-Fluoro-4-((4R,9S)-9-(methoxymethyl)-4-methyl-3,4,7,8,9,10-hexahydropyrido [3',4':3,4]pyrazolo[1,5-a]pyrazin-2(1H)-yl)pyrazolo[1,5-a]pyridine-7-carbonitrile] | > 0.05 | < 0.1 |  | 
8 | C[C@@H]1CN(c2ccc(C#N)n3ncc(F)c23)Cc2c3c(nn21)CNC(c1cnn(C)c1)C3 (stereo partly drawn) [Example I-91, 3-Fluoro-4-((4R)-4-methyl-9-(1-methyl-1H-pyrazol-4-yl)-3,4,7,8,9,10-hexahydropyrido[3',4':3,4]pyrazolo[1,5-a]pyrazin-2(1H)-yl)pyrazolo[1,5-a]pyridine-7-carbonitrile] | < 0.05 | < 0.1 |  | 
9 | C[C@@H]1CN(c2ccc(C#N)n3ncc(F)c23)Cc2c3c(nn21)CN1C(=O)OC[C@@H]1C3 [Example I-95, 3-Fluoro-4-((8R,12aS)-8-methyl-3-oxo-1,8,9,11,12,12a-hexahydro-3H,5H,10H-oxazolyl [3 ‴,4 ':1'6']pyridine and [3',4':3,4]pyrazole [1,5-a]pyrazine-10-yl) pyrazole [1,5-a]pyridine-7-nitrile] |  |  | > 0.05 | > 0.1
10 | C[C@@H]1CN(c2ccc(C#N)n3ncc(F)c23)Cc2c3c(nn21)CN(CC(N)=O)[C@@H](C)C3 [Example I-99, 2-((4R,9S)-2-(7-cyanide-3-fluoropyridox and [1,5-a]pyridox-4-base)-4,9-dimethyl-1,2,3,4,9, 10-hydropyridox [3', 4': 3, 4]pyridoz and [1, 5]pyridoxine-8 (7H)-Base) acetylamine] | < 0.05 | > 0.1 |  | 
11 | C[C@@H]1CN(c2ccc(C#N)n3ncc(F)c23)Cc2c3c(nn21)CN(CC(=O)N[C@H]1CNC[C@H]1F)[C@@H](C)C3 [Example I-106, 2-((4R,9S)-2-(7-cyano-3-fluoropyrazolo[1,5-a]pyridin-4-yl)-4,9-dimethyl-1,2,3,4,9,10-hexahydropyrido[3',4':3,4]pyrazolo[1,5-a]pyrazin-8(7H)-yl)-N-((3S,4R)-4-fluoropyrrolidin-3-yl)acetamide] | < 0.05 | < 0.1 |  | 

Now from value to compound, other results behind:

Row | IC50 [1, 3] [µM] | IC50 [2, 4] [µM] | SMILES | IC50 ([1]; HEK-Blue hTLR7 IC50 (µM)) [µM] | IC50 ([2]; HEK-Blue hTLR8 IC50 (µM)) [µM]
12 | < 0.05 | > 0.1 | CC(C)C1Cc2c(nn3c2CN(c2ccc(C#N)n4ncc(F)c24)C[C@H]3C)CN1 (stereo partly drawn) [Example I-60, 3-Fluoro-4-((4R)-9-isopropyl-4-methyl-3,4,7,8,9,10-hexahydropyrido[3',4':3,4]pyrazolo[1,5-a]pyrazin-2(1H)-yl)pyrazolo[1,5-a]pyridine-7-carbonitrile] |  | 
13 | > 0.05 | > 0.1 | C[C@H]1CN(c2ccc(C#N)n3ncc(F)c23)Cc2c3c(nn21)CNCC3 [Example I-76, (S)-3-Fluoro-4-(4-methyl-3,4,7,8,9,10-hexahydropyrido[3',4':3,4]pyrazolo[1,5-a]pyrazin-2(1H)-yl)pyrazolo[1,5-a]pyridine-7-carbonitrile] |  | 
14 | < 0.05 | > 0.1 | COC[C@H]1Cc2c(nn3c2CN(c2ccc(C#N)n4ncc(F)c24)C[C@H]3C)CN1 [Example I-82, 3-Fluoro-4-((4R,9R)-9-(methoxymethyl)-4-methyl-3,4,7,8,9,10-hexahydropyrido [3',4':3,4]pyrazolo[1,5-a]pyrazin-2(1H)-yl)pyrazolo[1,5-a]pyridine-7-carbonitrile] |  | 
15 | < 0.05 | < 0.1 | C[C@@H]1CN(c2ccc(C#N)n3ncc(F)c23)Cc2c3c(nn21)CNC(C)(C)C3 [Example I-83, (R)-3-Fluoro-4-(4,9,9-trimethyl-3,4,7,8,9,10-hexahydropyrido[3',4':3,4]pyrazolo [1,5-a]pyrazin-2(1H)-yl)pyrazolo[1,5-a]pyridine-7-carbonitrile] |  | 
16 | < 0.05 | < 0.1 | C[C@H]1NCCc2c1nn1c2CN(c2ccc(C#N)n3ncc(F)c23)C[C@H]1CF [Example I-87, 3-Fluoro-4-((4S,7R)-4-(fluoromethyl)-7-methyl-3,4,7,8,9,10-hexahydropyrido [3',4':3,4]pyrazolo[1,5-a]pyrazin-2(1H)-yl)pyrazolo[1,5-a]pyridine-7-carbonitrile] |  | 
